Reference: publication PMC4320098, “Identification and Characterization of a Novel Phosphodiesterase from the Metagenome of an Indian Coalbed” (PLoS ONE, 2015)

Legend:
PdeM = PdeM (uncultured organism, UniProt S5THN5); assay: p-nitrophenol release, absorbance […] nm, Michaelis-Menten non-linear fit; assay type: biochemical; settings: 2 mM MnCl2, 50 mM Tris-HCl pH 8.5, 5 mM beta-ME, 10 mM NaCl, 25 °C, 30 min
[1] = system: O=[N+]([O-])c1ccc(OP(=O)(O)Oc2ccc([N+](=O)[O-])cc2)cc1; assay: purified protein; assay type: biochemical, uncultured organism; settings: pH 8.5; 25.0 °C

Sequence of PdeM (S5THN5 entry or part of it): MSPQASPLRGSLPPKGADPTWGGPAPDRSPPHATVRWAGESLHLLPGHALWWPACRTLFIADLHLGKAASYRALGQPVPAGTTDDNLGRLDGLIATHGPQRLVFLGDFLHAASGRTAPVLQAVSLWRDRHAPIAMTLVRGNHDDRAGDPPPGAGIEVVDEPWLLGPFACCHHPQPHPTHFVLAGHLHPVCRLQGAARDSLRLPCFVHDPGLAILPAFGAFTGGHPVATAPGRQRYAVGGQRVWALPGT

Molecule	Km (PdeM) [mM]	Km [1] [mM]
O=[N+]([O-])c1ccc(OP(=O)(O)c2ccccc2)cc1 [pNPPP]	7.2 ± 1.4	–
PdeM (uncultured organism)	–	10.21 ± 1.6
